The values below come from patent publication US9493506B2 (Enanta Pharmaceuticals, Inc., priority 2010, dated 2016).

As a reminder, the EC50 is the concentration giving half of the maximal effect.

Assay type in all cases: cell-based, hepatitis C virus (genotype 1a-H77)
Test [1] concerns HCV replicon with a R155K mutation in a 1a-H77 background. Put plainly: transient replicon assay, R155K mutation in 1a-H77 background. The conditions noted are these: Hepatitis C virus, read-out: EC50 in a transient replicon assay with a R155K mutation in a 1a-H77 background. As for the experimental part:
(§1) Replicon cell lines can be maintained in Dulbecco's modified Eagles medium (DMEM) containing 100 IU/ml penicillin, […] streptomycin (Invitrogen), […] G418 (Invitrogen) and 10% (v/v) fetal bovine serum (FBS). Replicon-containing cells can be seeded into 96 well plates at a density of 5000 cells per well in 100 μl DMEM containing 5% FBS. The next day, the compound can be initially diluted in dimethyl sulfoxide (DMSO) to generate a 200× stock of the inhibitor in a series of 8 half-log dilutions. The dilution series can then be diluted 100-fold in the medium containing 5% FBS. One hundred microliters of medium with the inhibitor can be added to each well of the overnight cell culture plate already containing 100 μl of DMEM with 5% FBS. In assays where the protein binding effect on inhibitor potency is assessed, the medium from the overnight cell culture plates can be replaced with 200 μl DMEM containing 40% human plasma (Innovative Research) plus 5% FBS as well as compound. The cells can be grown for 4 days in tissue culture incubators. The inhibitory effects of compounds against the replicons can be determined by measuring either the level of luciferase or HCV RNA. The luciferase assay can be conducted using a Luciferase Assay System kit (Promega) following the manufacturer's instructions. Briefly, the cell culture medium is removed and wells are washed with 200 μl of phosphate-buffered saline. To each well Passive Lysis buffer (Promega, Wis.) is added and the plates are incubated for 30 min with rocking to lyse the cells. Luciferin solution (50 μl, Promega) is added, and luciferase activity is measured with a Victor II luminometer (Perkin-Elmer). To determine HCV RNA levels, RNA extractions can be performed using the CellsDirect kit (Invitrogen), and the HCV RNA copy number can be measured using the SuperScript III Platinum One-Step qRT-PCR system (Invitrogen) and primers specific to the HCV 5′ nontranslated region. Cytotoxicity can be determined by the 3-[4,5-dimethylhiazol-2-yl]-2,5-diphenyltetrazolium bromide (MTT) colorimetric assay as follows. Replicon cells is plated in 96-well plates (4000 cells per well), the next day compound dilutions are added as in the activity assay, and the cells are grown in the presence of the inhibitors for 4 days. The MTT solution is diluted in DMEM containing 5% FBS and 60 μl of the solution is added to the cells. After 4 hrs, the cells are solubilized by the addition of 30 […]μl SDS (20% in 0.02 N HCl). The plates are incubated overnight and the optical density can be measured at 570 nm. To determine compounds' EC50 and TD50, luciferase, RNA inhibition and MTT data can be analyzed using the GraphPad Prism 4 software (equation: sigmoidal dose-response—variable slope).
(§2) The 1a-H77 replicon for transient assays further differs from the replicon in the stable cell line in that it contains NS2 through NS5B in the second cistron. The 1b-N strain replicon contains NS3 through NS5B in the second cistron, with adaptive mutations E1202G in NS3 and S2204I in NS5A. Mutagenesis can be performed using the Stratagene QuikChange XL II site-directed mutagenesis kit. Mutants' sequences can be confirmed, plasmids can be linearized with Xba I restriction enzyme and used as template for in vitro transcription reactions to make mutant replicon RNA for transient transfections. In vitro transcription can be performed with the T7 Megascript kit (Ambion).
(§3) Transient replicon transfections can be performed essentially as described by Mo et al. (Antimicrob Agents Chemother (2005) 49(10):4305-4314) with slight modifications. Fifteen micrograms of template RNA can be used to electroporate 3×10^6 cells in a 200 μl volume in a 0.2 cm cuvette. The cells used for transient transfections can be Huh7 cells obtained by curing replicon-containing cells with IFN (Mo et al., supra). Electroporation can be done with a Gene Pulser II (Bio-Rad, CA) at 480V and 25 μF, using two manual pulses. […]
For orientation: In antiviral work, replicon cells carry a viral genome segment that copies itself.

For test [2], the system named is HCV replicon with a D168E mutation in a 1a-H77 background. In words: transient replicon assay, D168E mutation in 1a-H77 background. As to conditions: Hepatitis C virus, read-out: EC50 in a transient replicon assay with a D168E mutation in a 1a-H77 background. The method, then:
as §1, §2, §3

The test system of test [3] is HCV replicon with a D168V mutation in a 1a-H77 background. Put plainly: transient replicon assay, D168V mutation in 1a-H77 background. The conditions noted are these: Hepatitis C virus, read-out: EC50 in a transient replicon assay with a D168V mutation in a 1a-H77 background. As for the experimental part:
as §1, §2, §3

As to `CC1(S(=O)(=O)NC(=O)[C@@]23C[C@H]2/C=C\CCCCC[C@H](NC(=O)c2ccon2)C(=O)N2C[C@H](Oc4nc5cc(F)ccc5nc4C(F)(F)F)C[C@H]2C(=O)N3)CC1` [Example 109, N-((2R,6S,13aS,14aR,16aS,Z)-2-(7-fluoro-3-(trifluoromethyl)quinoxalin-2-yloxy)-14a-(1-methylcyclopropylsulfonylcarbamoyl)-5,16-dioxo-1,2,3,5,6,7,8,9,10,11,13a,14,14a,15,16,16a-hexadecahydrocyclopropa[e]pyrrolo[1,2-a][1,4]diazacyclopentadecin-6-yl)isoxazole-3-carboxamide], the EC50 in test [1] was < 1 nM; in test [2], < 3 nM; in test [3], < 25 nM.

On to `CCc1nc2ccc(F)cc2nc1O[C@@H]1C[C@H]2C(=O)N[C@]3(C(=O)NS(=O)(=O)C4CC4)C[C@H]3/C=C\CCCCC[C@H](NC(=O)c3cc(C)on3)C(=O)N2C1` [Example 124, N-((2R,6S,13aS,14aR,16aS,Z)-14a-(cyclopropylsulfonylcarbamoyl)-2-(3-ethyl-7-fluoroquinoxalin-2-yloxy)-5,16-dioxo-1,2,3,5,6,7,8,9,10,11,13a,14,14a,15,16,16a-hexadecahydrocyclopropa[e]pyrrolo[1,2-a][1,4]diazacyclopentadecin-6-yl)-5-methylisoxazole-3-carboxamide], for which the half-maximal effective concentration (EC50) in test [1] lay within 1 to 10 nM; in test [2] it was 20 to 50 nM; in test [3], 50 to 250 nM.

On to `Cc1onc(C(=O)N[C@H]2CCCCC/C=C\[C@@H]3C[C@@]3(C(=O)NS(=O)(=O)C3(C)CC3)NC(=O)[C@@H]3C[C@@H](Oc4nc5ccccc5nc4C(C)(F)F)CN3C2=O)c1C` [Example 7, N-((2R,6S,13aS,14aR,16aS,Z)-2-(3-(1,1-difluoroethyl)quinoxalin-2-yloxy)-14a-(1-methylcyclopropylsulfonylcarbamoyl)-5,16-dioxo-1,2,3,5,6,7,8,9,10,11,13a,14,14a,15,16,16a-hexadecahydrocyclopropa[e]pyrrolo[1,2-a][1,4]diazacyclopentadecin-6-yl)-4,5-dimethylisoxazole-3-carboxamide], for which the concentration for a half-maximal effect (EC50) was 1 to 10 nM in test [1], < 3 nM in test [2] and 25 to 50 nM in test [3].

Take `Cc1nc2c(Br)cc(F)cc2nc1O[C@@H]1C[C@H]2C(=O)N[C@]3(C(=O)NS(=O)(=O)C4(C)CC4)C[C@H]3/C=C\CCCCC[C@H](NC(=O)c3ccon3)C(=O)N2C1` [Example 100, N-((2R,6S,13aS,14aR,16aS,Z)-2-(5-bromo-7-fluoro-3-methylquinoxalin-2-yloxy)-14a-(1-methylcyclopropylsulfonylcarbamoyl)-5,16-dioxo-1,2,3,5,6,7,8,9,10,11,13a,14,14a,15,16,16a-hexadecahydrocyclopropa[e]pyrrolo[1,2-a][1,4]diazacyclopentadecin-6-yl)isoxazole-3-carboxamide]: the EC50 in test [1] was < 1 nM; in test [2], 3 to 20 nM; in test [3] it was < 25 nM.

For `CCc1nc2ccc(F)cc2nc1O[C@@H]1C[C@H]2C(=O)N[C@]3(C(=O)NS(=O)(=O)C4CC4)C[C@H]3/C=C\CCCCC[C@H](NC(=O)OC(C)(C)C)C(=O)N2C1` [Example 121, tert-butyl (2R,6S,13aS,14aR,16aS,Z)-14a-(cyclopropylsulfonylcarbamoyl)-2-(3-ethyl-7-fluoroquinoxalin-2-yloxy)-5,16-dioxo-1,2,3,5,6,7,8,9,10,11,13a,14,14a,15,16,16a-hexadecahydrocyclopropa[e]pyrrolo[1,2-a][1,4]diazacyclopentadecin-6-ylcarbamate], the EC50 in test [1] lay within 1 to 10 nM; in test [2] it was 3 to 20 nM; in test [3], 50 to 250 nM.

On to `Cc1onc(C(=O)N[C@H]2CCCCC/C=C\[C@@H]3C[C@@]3(C(=O)NS(=O)(=O)C3(C)CC3)NC(=O)[C@@H]3C[C@@H](Oc4nc5cc(F)ccc5nc4C(C)(F)F)CN3C2=O)c1C` [Example 120, N-((2R,6S,13aS,14aR,16aS,Z)-2-(3-(1,1-difluoroethyl)-7-fluoroquinoxalin-2-yloxy)-14a-(1-methylcyclopropylsulfonylcarbamoyl)-5,16-dioxo-1,2,3,5,6,7,8,9,10,11,13a,14,14a,15,16,16a-hexadecahydrocyclopropa[e]pyrrolo[1,2-a][1,4]diazacyclopentadecin-6-yl)-4,5-methylisoxazole-3-carboxamide], for which the EC50 in test [1] is < 1 nM; in test [2], < 3 nM; in test [3], < 25 nM.

Take `CCc1nc2ccc(F)cc2nc1O[C@@H]1C[C@H]2C(=O)N[C@]3(C(=O)NS(=O)(=O)C4CC4)C[C@H]3/C=C\CCCCC[C@H](NC(=O)c3ccon3)C(=O)N2C1` [Example 122, N-((2R,6S,13aS,14aR,16aS,Z)-14a-(cyclopropylsulfonylcarbamoyl)-2-(3-ethyl-7-fluoroquinoxalin-2-yloxy)-5,16-dioxo-1,2,3,5,6,7,8,9,10,11,13a,14,14a,15,16,16a-hexadecahydrocyclopropa[e]pyrrolo[1,2-a][1,4]diazacyclopentadecin-6-yl)isoxazole-3-carboxamide]: the EC50 in test [1] was in the range of 1 to 10 nM; in test [2] it was 20 to 50 nM; in test [3] it was 250 to 1000 nM.

On to `Cc1nc2ccc(F)cc2nc1O[C@@H]1C[C@H]2C(=O)N[C@]3(C(=O)NS(=O)(=O)C4(C)CC4)C[C@H]3/C=C\CCCCC[C@H](NC(=O)c3noc(C)c3C)C(=O)N2C1` [Example 24, N-((2R,6S,13aS,14aR,16aS,Z)-2-(7-fluoro-3-methylquinoxalin-2-yloxy)-14a-(1-methylcyclopropylsulfonylcarbamoyl)-5,16-dioxo-1,2,3,5,6,7,8,9,10,11,13a,14,14a,15,16,16a-hexadecahydrocyclopropa[e]pyrrolo[1,2-a][1,4]diazacyclopentadecin-6-yl)-4,5-dimethylisoxazole-3-carboxamide], for which the EC50 in test [1] was < 1 nM; in test [2] it was < 3 nM; in test [3], < 25 nM.

As for `CC(C)(C)OC(=O)N[C@H]1CCCCC/C=C\[C@@H]2C[C@@]2(C(=O)NS(=O)(=O)C2CC2)NC(=O)[C@@H]2C[C@@H](Oc3nc4cc(F)ccc4nc3C(F)(F)F)CN2C1=O` [Example 106, tert-butyl (2R,6S,13aS,14aR,16aS,Z)-14a-(cyclopropylsulfonylcarbamoyl)-2-(7-fluoro-3-(trifluoromethyl)quinoxalin-2-yloxy)-5,16-dioxo-1,2,3,5,6,7,8,9,10,11,13a,14,14a,15,16,16a-hexadecahydrocyclopropa[e]pyrrolo[1,2-a][1,4]diazacyclopentadecin-6-ylcarbamate], the values for the EC50 in test [1], in test [2] and in test [3] were < 1 nM, 3 to 20 nM and 50 to 250 nM, respectively.

Regarding `Cc1cnc(C(=O)N[C@H]2CCCCC/C=C\[C@@H]3C[C@@]3(C(=O)NS(=O)(=O)C3CC3)NC(=O)[C@@H]3C[C@@H](Oc4nc5ccccc5nc4C(F)(F)F)CN3C2=O)cn1` [Example 11, (2R,6S,13aS,14aR,16aS,Z)—N-(cyclopropylsulfonyl)-2-(3-(trifluoromethyl)quinoxalin-2-yloxy)-6-(5-methylpyrazine-2-carboxamido)-5,16-dioxo-1,2,3,5,6,7,8,9,10,11,13a,14,14a,15,16,16a-hexadecahydrocyclopropa[e]pyrrolo[1,2-a][1,4]diazacyclopentadecine-14a-carboxamide], the EC50 in test [1] was 10 to 25 nM; in test [2], > 100 nM; in test [3], 50 to 250 nM.
